Experimental findings from US7429659B2, “Furan compounds as histamine H3 modulators” (Janssen Pharmaceutica N.V., priority 2004, dated 2008) are described below.

Counter-ions that a name gives are not always drawn.

This experiment addresses T1, human histamine H3 receptor (Homo sapiens, UniProt Q9Y5N1).
T1 construct: One μg supercoiled H3 receptor cDNA was added to the cells; expressed in transfected cells; membranes prepared from cell pellets
The experiment is described as follows: [3H]-N-Methylhistamine binding to membranes of histamine H3 receptor-expressing SK-N-MC cells. The following applies: 0.8 nM [3H]-N-methylhistamine, 60 min at 25° C., SK-N-MC cell membranes; Ki=(IC50)/(1+([L]/(KD)). The procedure:
Cells were grown to about 70% to 80% confluence and removed from the plate with trypsin and pelleted in a clinical centrifuge. […] One μg supercoiled H3 receptor cDNA was added to the cells and mixed gently. […] Colonies that survived selection were grown and tested. SK-N-MC cells were used because they give efficient coupling for inhibition of adenylate cyclase. The clones that gave the most robust inhibition of adenylate cyclase in response to histamine were used for further study.
Supernatants from an 800 g spin were collected and were recentrifuged at 30,000 g for 30 min. Pellets were re-homogenized in 50 mM Tris/5 mM EDTA (pH 7.4). Membranes were incubated with 0.8 nM [^3H]-N-methylhistamine plus/minus test compounds for 60 min at 25° C. and were harvested by rapid filtration over GF/C glass fiber filters (pretreated with 0.3% polyethylenimine) followed by four washes with buffer. Filters were added to 5 mL of scintillation cocktail, and the signal was then counted on a liquid scintillation counter.

T1 sequence (Q9Y5N1 whole entry): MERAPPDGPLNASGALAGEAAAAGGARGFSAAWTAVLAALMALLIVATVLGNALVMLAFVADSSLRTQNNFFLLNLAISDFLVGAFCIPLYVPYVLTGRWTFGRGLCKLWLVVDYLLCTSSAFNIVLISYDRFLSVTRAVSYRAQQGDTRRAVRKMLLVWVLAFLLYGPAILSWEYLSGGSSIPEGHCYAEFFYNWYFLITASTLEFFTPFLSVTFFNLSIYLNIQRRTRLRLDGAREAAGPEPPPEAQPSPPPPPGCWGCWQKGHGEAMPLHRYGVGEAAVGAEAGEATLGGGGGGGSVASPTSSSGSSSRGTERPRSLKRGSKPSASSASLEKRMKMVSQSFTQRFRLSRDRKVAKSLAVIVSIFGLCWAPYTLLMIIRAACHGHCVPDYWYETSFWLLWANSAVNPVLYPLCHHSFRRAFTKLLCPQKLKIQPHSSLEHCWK

As a reminder, the Ki is the equilibrium dissociation constant of an inhibitor or competing ligand from its target. On to `CC(C)N1CCN(C(=O)c2ccc(CN3CCC(F)CC3)o2)CC1` [Example 19, [5-(4-Fluoro-piperidin-1-ylmethyl)-furan-2-yl]-(4-isopropyl-piperazin-1-yl)-methanone, fumarate salt], for which the inhibition constant (Ki) turned out to be 64 nM.
